From patent US6589945B1, “Use of sterolsulfates as active substances for producing means to inhibit serin proteases” (Cognis Deutschland GmbH & Co. KG, priority 1996, dated 2003)

Tested on: Elastase
Experiment: Elastase-inhibiting effect of sterol derivatives
Format: biochemical
Description: The elastase-inhibiting effect of various sterol derivatives was investigated in the concentration range from 2.5 to 1000 ppm.

| Elastase-inhibiting effect (2.5 ppm inhibitor) | Elastase-inhibiting effect (5 ppm inhibitor) | Elastase-inhibiting effect (12.5 ppm inhibitor) | Elastase-inhibiting effect (500 ppm inhibitor) | Elastase-inhibiting effect (1000 ppm inhibitor) | Molecule |
| --- | --- | --- | --- | --- | --- |
| 0 %-rel | 0 %-rel | 0 %-rel | 0 %-rel | 0 %-rel | Phytosterol succinate [Example C2] |
| 0 %-rel | 0 %-rel | 0 %-rel | 0 %-rel | 30 %-rel | Phytosterol phosphate [Example C3] |

Second part, the molecule before the results:

| Molecule | Elastase-inhibiting effect (2.5 ppm inhibitor) | Elastase-inhibiting effect (5 ppm inhibitor) | Elastase-inhibiting effect (12.5 ppm inhibitor) | Elastase-inhibiting effect (500 ppm inhibitor) | Elastase-inhibiting effect (1000 ppm inhibitor) |
| --- | --- | --- | --- | --- | --- |
| CC(=O)O[C@H]1CC[C@@]2(C)C(=CC[C@H]3[C@@H]4CC[C@H]([C@H](C)CCCC(C)C)[C@@]4(C)CC[C@@H]32)C1 [Example C1, Cholesterol acetate] | 0 %-rel | 0 %-rel | 0 %-rel | 33 %-rel | 59 %-rel |
| CC(C)CCC[C@@H](C)[C@H]1CC[C@H]2[C@@H]3CC=C4C[C@@H](OS(=O)(=O)[O-])CC[C@]4(C)[C@H]3CC[C@]12C.[Na+] [Example 1, Cholesterol sulfate, sodium salt] | 49 %-rel | 92 %-rel | 100 %-rel |  |  |
| Phytosterol sulfate, sodium salt [Example 2] | 31 %-rel | 64 %-rel | 98 %-rel |  |  |
